Reference: patent publication US10376520B2, “Methods for the treatment of cardiovascular disorders” (Galapagos NV, priority 2015, dated 2019)

System: Subjects With Active Crohn's Disease
Experiment: Total cholesterol determination, Study 5 (Crohn's disease, monotherapy of Compound 1)
Assay type: in vivo, human
Details: for [Total cholesterol] Mean CFB - 20 weeks results / [Total cholesterol] Median CFB - 20 weeks results: placebo week 0 to 10, to 100 mg q.d. week 10 to 20
From the text: Double-Blind, Randomized, Placebo-Controlled, Multi-Centre Study to Investigate the Efficacy and Safety of Compound 1 in Subjects With Active Crohn's Disease With Evidence of Mucosal Ulceration.
This is a double-blind, randomized, placebo-controlled, multi-centre Phase 2 study to investigate the efficacy and safety of Compound 1 administered once daily for the treatment of active CD with evidence of mucosal ulceration. The pharmacokinetics (including a PK substudy) and pharmacodynamics of Compound 1 and metabolite in CD will also be characterised.
A total of 180 eligible subjects will be randomized to receive Compound 1 or placebo in addition to their stable background treatment (eg, corticosteroids, aminosalicylates, or CD-related antibiotics). The study will consist of 2 parts, with total treatment duration of 20 weeks. Randomization in Part 1 will be stratified according the subject's previous anti-TNF exposure/response, CRP level at Screening, and oral corticosteroid use at visit Day −1.
After the first 10 weeks of treatment in Part 1, patients will be re-randomized for Part 2 as shown in the diagram below and will be stratified according to the subject's clinical response, previous anti-TNF exposure/response, and oral corticosteroid use at visit Day −1.
The following assays were conducted at Eurofins Global Central Laboratory, Bergschot 71, 4817 PA Breda, The Netherlands, and at Quest Diagnostics, Clinical Trials, Quest House, 125-135 Staines Road, Hounslow, Middlesex, TW3 3JB, United Kingdom. The assays for Study 5 were performed at BARC Europe, 3B, Industrie Park, Zwijnaarde, B-9052 Ghent, Belgium.
This method is based on the determination of Δ^4 cholestenone after enzymatic cleavage of the cholesterol ester by cholesterol esterase, conversion of cholesterol by cholesterol oxidase, and subsequent measurement by the Trinder reaction of the hydrogen peroxide formed (Allain et al., 1974).
Cholesterol esters are cleaved by the action of cholesterol esterase to yield free cholesterol and fatty acids. Cholesterol oxidase then catalyzes the oxidation of cholesterol to cholest-4-en-3-one and hydrogen peroxide. In the presence of peroxidase, the hydrogen peroxide formed effects the oxidative coupling of phenol and 4-aminophenazone to form a red quinone-imine dye. The color intensity of the dye formed is directly proportional to the cholesterol concentration. It is determined by measuring the increase in absorbance.
Human serum and plasma samples cholesterol determination was done on a Roche/Hitachi Cobas c 701/702 system which automatically calculate the analyte concentration of each sample.

[1] = Study 5 10 weeks results, 200 mg q.d., week 10
[2] = Study 5 20 weeks results, 200 mg q.d. to 100 mg q.d. at week 10, week 2
[3] = Study 5 20 weeks results, 200 mg q.d. to 100 mg q.d. at week 10, week 4
[4] = Study 5 20 weeks results, 200 mg q.d. to 100 mg q.d. at week 10, week 6
[5] = Study 5 20 weeks results, 200 mg q.d. to 100 mg q.d. at week 10, week 10
[6] = Study 5 20 weeks results, 200 mg q.d. to 100 mg q.d. at week 10, week 12
[7] = Study 5 20 weeks results, 200 mg q.d. to 100 mg q.d. at week 10, week 16
[8] = Study 5 20 weeks results, 200 mg q.d. to 100 mg q.d. at week 10, week 20
[9] = Study 5 20 weeks results, 200 mg q.d. to placebo at week 10, week 2
[10] = Study 5 20 weeks results, 200 mg q.d. to placebo at week 10, week 4
[11] = Study 5 20 weeks results, 200 mg q.d. to placebo at week 10, week 6
[12] = Study 5 20 weeks results, 200 mg q.d. to placebo at week 10, week 10
[13] = Study 5 20 weeks results, 200 mg q.d. to placebo at week 10, week 12
[14] = Study 5 20 weeks results, 200 mg q.d. to placebo at week 10, week 16
[15] = Study 5 20 weeks results, 200 mg q.d. to placebo at week 10, week 20
[16] = Study 5 20 weeks results, continued 200 mg q.d., week 2
[17] = Study 5 20 weeks results, continued 200 mg q.d., week 4
[18] = Study 5 20 weeks results, continued 200 mg q.d., week 6
[19] = Study 5 20 weeks results, continued 200 mg q.d., week 10
[20] = Study 5 20 weeks results, continued 200 mg q.d., week 12
[21] = Study 5 20 weeks results, continued 200 mg q.d., week 16
[22] = Study 5 20 weeks results, continued 200 mg q.d., week 20
[23] = Study 5 20 weeks results, placebo to 100 mg q.d. at week 10, week 12
[24] = Study 5 20 weeks results, placebo to 100 mg q.d. at week 10, week 16
[25] = Study 5 20 weeks results, placebo to 100 mg q.d. at week 10, week 20

## O=C(Nc1nc2cccc(-c3ccc(CN4CCS(=O)(=O)CC4)cc3)n2n1)C1CC1 [Compound 1, cyclopropanecarboxylic acid {5-[4-(1,1-dioxo-thiomorpholin-4-ylmethyl)-phenyl]-[1,2,4]triazolo[1,5-a]pyridin-2yl}-amide]
[1]
  [Total cholesterol] Median CFB: 0.340 mmol/L
  [total cholesterol] Mean CFB: 0.401 mmol/L
[2]
  [Total cholesterol] Median CFB: 0.19 mmol/L
  [total cholesterol] Mean CFB: 0.18 mmol/L
[3]
  [Total cholesterol] Median CFB: 0.12 mmol/L
  [total cholesterol] Mean CFB: 0.27 mmol/L
[4]
  [Total cholesterol] Median CFB: 0.28 mmol/L
  [total cholesterol] Mean CFB: 0.26 mmol/L
[5]
  [Total cholesterol] Median CFB: 0.38 mmol/L
  [total cholesterol] Mean CFB: 0.44 mmol/L
[6]
  [Total cholesterol] Median CFB: 0.33 mmol/L
  [total cholesterol] Mean CFB: 0.23 mmol/L
[7]
  [Total cholesterol] Median CFB: 0.13 mmol/L
  [total cholesterol] Mean CFB: 0.09 mmol/L
[8]
  [Total cholesterol] Median CFB: 0.10 mmol/L
  [total cholesterol] Mean CFB: 0.14 mmol/L
[9]
  [Total cholesterol] Median CFB: 0.24 mmol/L
  [total cholesterol] Mean CFB: 0.16 mmol/L
[10]
  [Total cholesterol] Median CFB: 0.34 mmol/L
  [total cholesterol] Mean CFB: 0.27 mmol/L
[11]
  [Total cholesterol] Median CFB: 0.29 mmol/L
  [total cholesterol] Mean CFB: 0.22 mmol/L
[12]
  [Total cholesterol] Median CFB: 0.23 mmol/L
  [total cholesterol] Mean CFB: 0.22 mmol/L
[13]
  [Total cholesterol] Median CFB: 0.18 mmol/L
  [total cholesterol] Mean CFB: 0.04 mmol/L
[14]
  [Total cholesterol] Median CFB: 0.05 mmol/L
  [total cholesterol] Mean CFB: 0.19 mmol/L
[15]
  [Total cholesterol] Median CFB: 0.07 mmol/L
  [total cholesterol] Mean CFB: 0.18 mmol/L
[16]
  [Total cholesterol] Median CFB: 0.21 mmol/L
  [total cholesterol] Mean CFB: 0.27 mmol/L
[17]
  [Total cholesterol] Median CFB: 0.16 mmol/L
  [total cholesterol] Mean CFB: 0.14 mmol/L
[18]
  [Total cholesterol] Median CFB: 0.33 mmol/L
  [total cholesterol] Mean CFB: 0.19 mmol/L
[19]
  [Total cholesterol] Median CFB: 0.47 mmol/L
  [total cholesterol] Mean CFB: 0.43 mmol/L
[20]
  [Total cholesterol] Median CFB: 0.29 mmol/L
  [total cholesterol] Mean CFB: 0.42 mmol/L
[21]
  [Total cholesterol] Median CFB: 0.31 mmol/L
  [total cholesterol] Mean CFB: 0.43 mmol/L
[22]
  [Total cholesterol] Median CFB: 0.26 mmol/L
  [total cholesterol] Mean CFB: 0.40 mmol/L
[23]
  [Total cholesterol] Median CFB: 0.02 mmol/L
  [total cholesterol] Mean CFB: 0.11 mmol/L
[24]
  [Total cholesterol] Median CFB: 0.01 mmol/L
  [total cholesterol] Mean CFB: 0.08 mmol/L
[25]
  [Total cholesterol] Median CFB: 0.10 mmol/L
  [total cholesterol] Mean CFB: 0.03 mmol/L
Week 12
  [Total cholesterol] Mean CFB - 20 weeks results: 2.49%
  [Total cholesterol] Median CFB - 20 weeks results: 0.41%
Week 16
  [Total cholesterol] Mean CFB - 20 weeks results: 2.84%
  [Total cholesterol] Median CFB - 20 weeks results: 0.19%
Week 20
  [Total cholesterol] Mean CFB - 20 weeks results: 1.90%
  [Total cholesterol] Median CFB - 20 weeks results: 2.81%
